Data reported in US20070021380A1, “Novel drug delivery compositions” (priority 2005, published 2007).
Converted amounts (≈) assume the structure as drawn.

Tested on: HBV
Assay: Anti-viral activity: viral DNA by Q-PCR in tetracycline-responsive HepAD38 cells
Assay type: cell-based
Conditions: for EC50: HepAD38 cells, viral DNA at day 4 post-induction, Q-PCR; for Improvement Compared to araA: therapeutic effect relative to araA (=1.00)
Protocol: Tetracycline-responsive cell lines HepAD38 were used (Ladner et al., 1997), hepatoma cells that have been stably transfected with a cDNA copy of the pregenomic RNA of wild-type virus. Withdrawal of tetracycline from the culture medium results in the initiation of viral replication. Cells were cultured at 37° C. in a humidified 5% CO2/air atmosphere in seeding medium, DMEM/Ham's F12 (50/50) supplemented with 10% (v/v) heat-inactivated fetal calf serum, 100 IU/ml penicillin/50 μg/ml streptomycin mix, 400 μg/ml G418, and 0.3 μg/ml tetracycline.
Upon assay initiation, the cells were seeded in 48-well plates at a density of 1.5×10^5/well. After 2-3 days the cultures were induced for viral production by washing with prewarmed PBS and were fed with 200 μl assay medium (seeding medium without tetracycline and G418) with or without the antiviral compounds. Medium was changed after 3 days. The antiviral effect was quantified by measuring levels of viral DNA [isolated (Qiagen) from the cell cultures] at day 4 post-induction, by a real time quantitative PCR (Q-PCR) and analyzed using a SDS 7000 (Applied Biosystems, Foster City, Calif.).
A plasmid containing the full length insert of the HBV genome was used to prepare the standard curve. The amount of viral DNA produced in treated cultures was expressed as a percentage of the mock treated samples. The cytostatic effect of the various compounds was assessed employing the parent hepatoma cell line HepG2. The effect of the compounds on exponentially growing HepG2 cells was evaluated by means of the MTS method (Promega). Briefly, cells were seeded at a density of 3000/well (96 well plate) and were allowed to proliferate for 3 days in the absence or presence of compounds after which time cell density was determined.

SMILES | EC50 [µg/mL] | Improvement Compared to araA
Nc1ncnc2c1ncn2[C@@H]1O[C@H](CO)[C@@H](O)[C@@H]1O [araA] | 35 (≈ 131 µM) | 1.00
Nc1ncnc2c1ncn2[C@@H]1O[C@H](COP(=O)(O)O)[C@@H](O)[C@@H]1O [araAMP, araA-monophosphate] | 33 (≈ 95 µM) | 1.35
